# Experimental data from patent US9533977B2, “Oxazolidinone derivative as CETP inhibitor, its preparation method, and pharmaceutical composition comprising the same” (DONG-A ST CO., LTD., priority 2013, dated 2017).
# Target: T1, CETP (Homo sapiens, UniProt P11597)
# T1 construct: from tissue; host or cells: human plasma from healthy men
# T1 sequence (P11597 18-493): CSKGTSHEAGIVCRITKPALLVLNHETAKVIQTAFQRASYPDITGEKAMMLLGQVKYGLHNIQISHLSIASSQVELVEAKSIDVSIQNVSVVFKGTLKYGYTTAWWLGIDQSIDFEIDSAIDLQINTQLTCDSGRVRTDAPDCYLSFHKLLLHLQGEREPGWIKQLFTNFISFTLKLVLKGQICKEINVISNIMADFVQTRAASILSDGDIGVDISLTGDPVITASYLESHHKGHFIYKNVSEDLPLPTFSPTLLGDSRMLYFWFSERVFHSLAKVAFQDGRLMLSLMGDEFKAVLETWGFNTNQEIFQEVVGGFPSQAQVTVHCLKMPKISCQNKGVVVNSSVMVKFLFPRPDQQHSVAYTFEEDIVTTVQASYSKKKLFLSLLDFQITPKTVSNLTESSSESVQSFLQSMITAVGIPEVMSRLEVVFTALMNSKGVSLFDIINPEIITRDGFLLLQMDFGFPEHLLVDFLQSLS
# Experiment: Inhibitory activity against CETP in human plasma (Roar CETP activity kit, fluorescence)
# Type: biochemical
# Conditions: plasma from healthy men diluted 1:10 in assay buffer, 37° C., 3 hrs, fluorescence 465/535 nm; read-out: IC50, Inhibition of CETP Activity in Human Plasma
# Procedure: A CETP activity kit (#RB-CETP) was purchased from Roar […], Inc. A donor and an acceptor (each, 4 ul), a 10× assay buffer (177 ul), and each of dilutions of test compounds in dimethylsulfoxide (DMSO, Sigma-Aldrich) (0.01 nM˜10000 nM) were added to each well of black round-bottom 96-well plates (Corning #3792). Plasma samples from healthy men were diluted in the assay buffer (1:10=plasma:assay buffer), and added to each well. The plates were sealed with a sealing film (Sigma-Aldrich, #Z369659), and incubated in a 37° C. incubator microplate shaker (#SLST-3, Seolin Bio) for 3 hrs. After removal of the sealing film, fluorescence was read on Spectra Max Gemini EM (Molecular devices) with an excitation wavelength of 465 nm and an emission wavelength of 535 nm. Measurements were calculated according to the following formula. Calculated value=(Fluorescence Intensity with both compound and plasma−Fluorescence Intensity with compound but without plasma)/(Fluorescence Intensity with plasma but without compound−Fluorescence Intensity with neither compound nor plasma)
# From the calculated value, a sigmoidal curve (y=start+(end-start)x^n/k^n+x^n) was drawn using Origin Software (OriginLab Corporation, ver. 8.0724) to obtain IC50 values.
row,IC50 [µM],Compound
1,0.379,"C[C@H]1[C@@H](c2cc(C(F)(F)F)cc(C(F)(F)F)c2)OC(=O)N1Cc1cc(C(F)(F)F)cnc1N(CC(=O)OC(C)(C)C)C1CCOCC1 [Example 17, t-butyl 2-([3-({(4S,5R)-5-[3,5-bis(trifluoromethyl)phenyl]-4-methyl-2-oxo-oxazolidin-3-yl}methyl)-5-(trifluoromethyl)pyridin-2-yl]-(tetrahydro-2H-pyran-4-yl)amino)-acetate]"
2,0.01,"CCN(c1ncc(C(F)(F)F)cc1CN1C(=O)O[C@H](c2cc(C(F)(F)F)cc(C(F)(F)F)c2)[C@@H]1C)C1CCCOC1 (stereo partly drawn) [Example 15, (4S,5R)-5-[3,5-bis(trifluoromethyl)phenyl]-4-methyl-3-({[2-ethyl(tetrahydro-2H-pyran-3-yl)amino]-5-(trifluoromethyl)pyridin-3-yl}methyl)-oxazolidin-2-one]"
3,0.019,CCN(c1ncc(C#N)cc1CN1C(=O)O[C@H](c2cc(C(F)(F)F)cc(C(F)(F)F)c2)[C@@H]1C)C1CCCCC1 [Example 54]
4,0.06,C[C@H]1[C@@H](c2cc(C(F)(F)F)cc(C(F)(F)F)c2)OC(=O)N1Cc1cc(C(F)(F)F)cnc1N(C1CCOCC1)C1CC1 [Example 10]
5,0.112,"C[C@H]1[C@@H](c2cc(C(F)(F)F)cc(C(F)(F)F)c2)OC(=O)N1Cc1cc(C(F)(F)F)cnc1N(C)C1CCOC1 (stereo partly drawn) [Example 1, (4S,5R)-5-[3,5-bis(trifluoromethyl)phenyl]-4-methyl-3-[(2-(methyl(tetrahydrofuran-3-yl)amino)-5-(trifluoromethyl)pyridin-3-yl)methyl]-oxazolidin-2-one]"
6,0.059,"C[C@H]1[C@@H](c2cc(C(F)(F)F)cc(C(F)(F)F)c2)OC(=O)N1Cc1cc(C(F)(F)F)cnc1N(C)C1CCCOCC1 (stereo partly drawn) [Example 20, (4S,5R)-5-[3,5-bis(trifluoromethyl)phenyl]-4-methyl-3-({[2-(methyl)(oxepen-4-yl)amino]-5-(trifluoromethyl)pyridin-3-yl}methyl)-oxazolidin-2-one]"
7,0.498,"CCN(c1ncc(C(F)(F)F)cc1CN1C(=O)O[C@H](c2cc(C(F)(F)F)cc(C(F)(F)F)c2)[C@@H]1C)C1CCN(C(=O)N(C)C)CC1 [Example 37, methyl 4-{[3-({(4S,5R)-5-[3,5-bis(trifluoromethyl)phenyl]-4-methyl-2-oxo-oxazolidin-3-yl}methyl)-5-(trifluoromethyl)pyridin-2-yl](ethyl)amino}-N,N-dimethylpiperidine-1-carboxamide]"
8,0.098,"CCN(c1ncccc1CN1C(=O)O[C@H](c2cc(C(F)(F)F)cc(C(F)(F)F)c2)[C@@H]1C)C1CCOCC1 [Example 14, (4S,5R)-5-[3,5-Bis(trifluoromethyl)phenyl]-4-methyl-3-({[2-ethyl(tetrahydro-2H-pyran-4-yl)amino]-pyridin-3-yl}methyl)-oxazolidin-2-one]"
9,0.068,"CCCCN(c1ncc(C(F)(F)F)cc1CN1C(=O)O[C@H](c2cc(C(F)(F)F)cc(C(F)(F)F)c2)[C@@H]1C)C1CCOCC1 [Example 9, (4S,5R)-5-[3,5-bis(trifluoromethyl)phenyl]-4-methyl-3-({[2-(butyl)(tetrahydro-2H-pyran-4-yl)amino]-5-(trifluoromethyl)pyridin-3-yl}methyl)-oxazolidin-2-one]"
10,0.062,"CCC(=O)N1CCC(N(CC)c2ncc(C(F)(F)F)cc2CN2C(=O)O[C@H](c3cc(C(F)(F)F)cc(C(F)(F)F)c3)[C@@H]2C)CC1 [Example 34, (4S,5R)-5-[3,5-bis(trifluoromethyl)phenyl]-4-methyl-3-({[2-(ethyl)(1-propionylpiperidin-4-yl)amino]-5-(trifluoromethyl)pyridin-3-yl}methyl)-oxazolidin-2-one]"
11,0.091,"C[C@H]1[C@@H](c2cc(C(F)(F)F)cc(C(F)(F)F)c2)OC(=O)N1Cc1cc(C(F)(F)F)cnc1N(CCO)C1CCOCC1 [Example 18, (4S,5R)-5-[3,5-Bis(trifluoromethyl)phenyl]-4-methyl-3-({[2-(hydroxyethyl)(tetrahydro-2H-pyran-4-yl)amino]-5-(trifluoromethyl)pyridin-3-yl}methyl)-oxazolidin-2-one]"
12,0.0265,"CCN(c1ncc(-c2cscn2)cc1CN1C(=O)O[C@H](c2cc(C(F)(F)F)cc(C(F)(F)F)c2)[C@@H]1C)C1CCCCC1 [Example 81, (4S,5R)-5-[3,5-bis(trifluoromethyl)phenyl]-4-methyl-3-({[2-(ethyl)(cyclohexyl)amino]-5-(thiazol-4-yl)pyridin-3-yl}methyl)-oxazolidin-2-one]"
13,0.0319,"CCN(c1ncc(-c2c(N)noc2C)cc1CN1C(=O)O[C@H](c2cc(C(F)(F)F)cc(C(F)(F)F)c2)[C@@H]1C)C1CCCCC1 [Example 85, (4S,5R)-5-[3,5-bis(trifluoromethyl)phenyl]-4-methyl-3-({[2-(ethyl)(cyclohexyl)amino]-5-(3-amino-5-methyl-isoxazol-4-yl)pyridin-3-yl}methyl)-oxazolidin-2-one]"
14,0.0127,CCN(c1ncc(-c2c(C)noc2C)cc1CN1C(=O)O[C@H](c2cc(C(F)(F)F)cc(C(F)(F)F)c2)[C@@H]1C)C1CCOCC1 [Example 51]

# Second part, the compound before the results:
row,Compound,IC50 [µM]
1,CCCN(C[C@H]1CC[C@H](CC(=O)O)CC1)c1ncc(-c2c(C)noc2C)nc1CN1C(=O)OC(c2cc(C(F)(F)F)cc(C(F)(F)F)c2)[C@@H]1C (stereo partly drawn) [Example 123],0.00719
2,CCN(C[C@H]1CC[C@H](CC(=O)O)CC1)c1ncc(-c2cccs2)nc1CN1C(=O)OC(c2cc(C(F)(F)F)cc(C(F)(F)F)c2)[C@@H]1C (stereo partly drawn) [Example 114],0.0103
3,CCN(C[C@H]1CC[C@H](CC(=O)O)CC1)c1ncc(-c2c(C)noc2C)nc1CN1C(=O)OC(c2cc(C(F)(F)F)cc(C(F)(F)F)c2)[C@@H]1C (stereo partly drawn) [Example 102],0.00065
4,"Cc1noc(C)c1-c1cnc(N2CCCC(C(F)(F)F)C2)c(CN2C(=O)O[C@@H](c3cc(C(F)(F)F)cc(C(F)(F)F)c3)[C@@H]2C)n1 (stereo partly drawn) [Example 100, (4S,5S)-5-[3,5-bis(trifluoromethyl)phenyl]-3-{[6-(3,5-dimethylisoxazol-4-yl)-3-[3-(trifluoromethyl)piperidin-1-yl]pyrazin-2-yl]methyl}-4-methyloxazolidin-2-one]",0.0156
5,"CCN(c1ncc(-c2cc(C)cs2)cc1CN1C(=O)O[C@H](c2cc(C(F)(F)F)cc(C(F)(F)F)c2)[C@@H]1C)C1CCCCC1 [Example 63, (4S,5R)-5-[3,5-bis(trifluoromethyl)phenyl]-4-methyl-3-({[2-(ethyl)(cyclohexyl)amino]-5-(3-methyl-thiophen-5-yl)pyridin-3-yl}methyl)-oxazolidin-2-one]",0.0189
6,"CCN(CC1CCC(CC(=O)O)CC1)c1ncc(-c2ccnn2C)nc1CN1C(=O)OC(c2cc(C(F)(F)F)cc(C(F)(F)F)c2)C1C [Example 106, trans-4-({[3-({(4S,5S)-5-[3,5-bis(trifluoromethyl)phenyl]-4-methyl-2-oxazolidin-3-yl}methyl)-5-(1-methyl-1H-pyrazol-5-yl)pyrazin-2-yl]{[N-(ethyl)aminomethyl]cyclohexyl)}acetic acid]",0.0303
7,CCN(C[C@H]1CC[C@H](CC(=O)O)CC1)c1ncc(C2CC2)nc1CN1C(=O)OC(c2cc(C(F)(F)F)cc(C(F)(F)F)c2)[C@@H]1C (stereo partly drawn) [Example 121],0.00388
8,CCN(C[C@H]1CC[C@H](CC(=O)O)CC1)c1ncc(-c2sccc2C)nc1CN1C(=O)OC(c2cc(C(F)(F)F)cc(C(F)(F)F)c2)[C@@H]1C (stereo partly drawn) [Example 111],0.00311
9,"Cc1noc(C)c1-c1cnc(N2CC(C)OC(C)C2)c(CN2C(=O)O[C@@H](c3cc(C(F)(F)F)cc(C(F)(F)F)c3)[C@@H]2C)n1 (stereo partly drawn) [Example 99, (4S,5S)-5-[3,5-bis(trifluoromethyl)phenyl]-3-{[6-(3,5-dimethylisoxazol-4-yl)-3-(2,6-dimethylmorpholino)pyrazin-2-yl]methyl}-4-methyloxazolidin-2-one]",0.0831
10,CCN(C[C@H]1CC[C@H](CC(=O)O)CC1)c1ncc(-c2ccc(C#N)cc2)nc1CN1C(=O)OC(c2cc(C(F)(F)F)cc(C(F)(F)F)c2)[C@@H]1C (stereo partly drawn) [Example 117],0.0117
11,C[C@H]1C(c2cc(C(F)(F)F)cc(C(F)(F)F)c2)OC(=O)N1Cc1nc(C2CCC2)cnc1N(C)C[C@H]1CC[C@H](CC(=O)O)CC1 (stereo partly drawn) [Example 128],0.0239
12,"Cc1noc(C)c1-c1cnc(N2CCCCC2)c(CN2C(=O)O[C@@H](c3cc(C(F)(F)F)cc(C(F)(F)F)c3)[C@@H]2C)n1 [Example 98, (4S,5S)-5-[3,5-bis(trifluoromethyl)phenyl]-3-{[6-(3,5-dimethylisoxazol-4-yl)-3-(piperidin-1-yl)pyrazin-2-yl)methyl}-4-methyloxazolidin-2-one]",0.00261
13,CCN(C[C@H]1CC[C@H](CC(=O)O)CC1)c1ncc(-c2ccccc2)nc1CN1C(=O)OC(c2cc(C(F)(F)F)cc(C(F)(F)F)c2)[C@@H]1C (stereo partly drawn) [Example 116],0.00629
